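Five compound concentrations were applied to cells in 96-well plates for 48 hours; endpoints were derived by simple linear interpolation of the resulting dose-response curve. GI50: concentration for 50% inhibition of growth.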 Active and inactive are the calls of the source. Cut-off read from the data, not from the text of the source: active = GI50 up to about 1.1 µM and inactive = higher.
Tests used:
Test in all cases: growth of human tumour cells (NCI), 48 h
[1] = system: SNB-78
[2] = system: KM-20L2
[3] = system: DMS-273
[4] = system: A549
[5] = system: ACHN
[6] = system: HCT-116
[7] = system: XF498
[8] = system: SF-295
[9] = system: HCC 2998
[10] = system: K562
[11] = system: CAKI-1
[12] = system: MOLT-4
[13] = system: 786-0
[14] = system: OVCAR-8
[15] = system: Malme-3M
[16] = system: M19-MEL
[17] = system: DLD-1
[18] = system: OVCAR-5
[19] = system: DMS-114
[20] = system: SK-OV-3
[21] = system: TK-10
[22] = system: HOP-92
[23] = system: NCI-H23
[24] = system: NCI-H460
[25] = system: OVCAR-4
[26] = system: UO-31
[27] = system: M14
[28] = system: NCI-H522
[29] = system: RPMI-8226
[30] = system: KM12
[31] = system: SK-MEL-2
[32] = system: OVCAR-3
[33] = system: HT-29
[34] = system: SN12C
[35] = system: SF-539
[36] = system: HOP-62
[37] = system: SF-268
[38] = system: UACC-257
[39] = system: LXFL 529
[40] = system: HCT-15
[41] = system: LOX IMVI
[42] = system: EKVX
[43] = system: NCI-H226
[44] = system: SK-MEL-28
[45] = system: SR
[46] = system: SNB-75
[47] = system: SW-620
[48] = system: SNB-19
[49] = system: SK-MEL-5
[50] = system: COLO 205
[51] = system: IGROV-1
[52] = system: CCRF-CEM
[53] = system: HL-60
[54] = system: U-251
[55] = system: RXF 393

CCCCCCn1c(SCC)c2ccccc2c1-c1nc(F)nc(F)n1 was tested, and the GI50 [1] was > 100 µM (inactive), the GI50 [2] was > 100 µM (inactive) and the GI50 [3] was > 100 µM (inactive). The GI50 [4] was > 100 µM (inactive), the GI50 [5] was > 100 µM (inactive) and the GI50 [6] was > 100 µM (inactive). The GI50 [7] was > 100 µM (inactive), the GI50 [8] was > 100 µM (inactive) and the GI50 [9] was > 100 µM (inactive). For the same compound, the GI50 [10] was > 100 µM (inactive), the GI50 [11] was > 100 µM (inactive) and the GI50 [12] was > 100 µM (inactive). The GI50 [13] was > 100 µM (inactive), the GI50 [14] was > 100 µM (inactive) and the GI50 [15] was > 100 µM (inactive). For the same compound, the GI50 [16] was > 100 µM (inactive), the GI50 [17] was > 100 µM (inactive) and the GI50 [18] was > 100 µM (inactive). For the same compound, the GI50 [19] was > 100 µM (inactive), the GI50 [20] was > 100 µM (inactive) and the GI50 [21] was > 100 µM (inactive). For the same compound, the GI50 [22] was > 100 µM (inactive), the GI50 [23] was > 100 µM (inactive) and the GI50 [24] was > 100 µM (inactive). The GI50 [25] was > 100 µM (inactive), the GI50 [26] was > 100 µM (inactive) and the GI50 [27] was > 100 µM (inactive). The GI50 [28] was > 100 µM (inactive), the GI50 [29] was > 100 µM (inactive) and the GI50 [30] was > 100 µM (inactive). The GI50 [31] was > 100 µM (inactive), the GI50 [32] was > 100 µM (inactive) and the GI50 [33] was > 100 µM (inactive). The GI50 [34] was > 100 µM (inactive), the GI50 [35] was > 100 µM (inactive) and the GI50 [36] was > 100 µM (inactive). For the same compound, the GI50 [37] was > 100 µM (inactive), the GI50 [38] was > 100 µM (inactive) and the GI50 [39] was > 100 µM (inactive). The GI50 [40] was greater than 100 µM, the GI50 [41] was > 100 µM (inactive) and the GI50 [42] was > 100 µM (inactive). For the same compound, the GI50 [43] was > 100 µM (inactive), the GI50 [44] was > 100 µM (inactive) and the GI50 [45] was 88.7 µM (inactive). The GI50 [46] was 73.5 µM (inactive), the GI50 [47] was > 100 µM (inactive) and the GI50 [48] was > 100 µM (inactive). The GI50 [49] was > 100 µM (inactive), the GI50 [50] was > 100 µM (inactive) and the GI50 [51] was > 100 µM (inactive). The GI50 [52] was 36 µM (inactive), the GI50 [53] was > 100 µM (inactive) and the GI50 [54] was > 100 µM (inactive). The GI50 [55] was > 100 µM (inactive).
